Tested on: MV-4-11 cells
Assay: Gene expression microarray analysis (Affymetrix PrimeView) and GSEA
Format: cell-based, human
Parameters: RFU PODN (11730768_x_at) / Fold change /veh PODN (11730768_x_at) / RFU LINC00158 (11744669_a_at) / Fold change /veh LINC00158 (11744669_a_at) / RFU DUSP10 (11751237_a_at) / Fold change /veh DUSP10 (11751237_a_at) / RFU ID3 (11757404_x_at) / Fold change /veh ID3 (11757404_x_at) / RFU PLEKHG5 (11737974_s_at) / Fold change /veh PLEKHG5 (11737974_s_at) / RFU LRRC4B (11730491_at) / Fold change /veh LRRC4B (11730491_at) / RFU GIMAP4 (11747438_a_at) / Fold change /veh GIMAP4 (11747438_a_at) / RFU KRT8 (11758183_x_at) / Fold change /veh KRT8 (11758183_x_at) / RFU CNN1 (11734310_a_at) / Fold change /veh CNN1 (11734310_a_at) / RFU VPS37D (11726825_at) / Fold change /veh VPS37D (11726825_at) / RFU C10orf10 (11716522_x_at) / Fold change /veh C10orf10 (11716522_x_at) / RFU KIR2DL2 /// KIR2DL4 /// KIR2DL5A /// KIR2DL5B /// KIR2DS1 /// KIR2DS2 /// KIR2DS3 /// KIR2DS4 /// KIR3DL3 /// KIR3DL3 /// KIR3DS1 (11738374_at) / Fold change /veh KIR2DL2 /// KIR2DL4 /// KIR2DL5A /// KIR2DL5B /// KIR2DS1 /// KIR2DS2 /// KIR2DS3 /// KIR2DS4 /// KIR3DL3 /// KIR3DL3 /// KIR3DS1 (11738374_at) / RFU C1QL1 (11718748_at) / Fold change /veh C1QL1 (11718748_at) / RFU TMPRSS4 (11747572_a_at) / Fold change /veh TMPRSS4 (11747572_a_at) / RFU HAMP (11756126_x_at) / Fold change /veh HAMP (11756126_x_at) / RFU RNFT2 (11725882_a_at) / Fold change /veh RNFT2 (11725882_a_at) / RFU NR4A2 (11747474_a_at) / Fold change /veh NR4A2 (11747474_a_at) / RFU ABCC12 (11746883_a_at) / Fold change /veh ABCC12 (11746883_a_at) / RFU TMEM136 (11760407_x_at) / Fold change /veh TMEM136 (11760407_x_at) / RFU CLDN22 /// WWC2 (11732394_at) / Fold change /veh CLDN22 /// WWC2 (11732394_at) / RFU HLA-DPB1 (11760878_x_at) / Fold change /veh HLA-DPB1 (11760878_x_at) / RFU SPINT1 (11716480_a_at) / Fold change /veh SPINT1 (11716480_a_at) / RFU GAP43 (11754022_s_at) / Fold change /veh GAP43 (11754022_s_at) / RFU A4GNT (11735810_at) / Fold change /veh A4GNT (11735810_at) / RFU PRB3 (11715151_x_at) / Fold change /veh PRB3 (11715151_x_at) / RFU TUBB4B (11761932_at) / Fold change /veh TUBB4B (11761932_at) / RFU CAPN14 (11732068_a_at) / Fold change /veh CAPN14 (11732068_a_at) / RFU TMCC2 (11721928_a_at) / Fold change /veh TMCC2 (11721928_a_at) / RFU IRGQ (11745062_a_at) / Fold change /veh IRGQ (11745062_a_at) / RFU FAM174B (11720279_a_at) / Fold change /veh FAM174B (11720279_a_at) / RFU TMPRSS4 (11748680_a_at) / Fold change /veh TMPRSS4 (11748680_a_at) / RFU FAM212B (11763350_a_at) / Fold change /veh FAM212B (11763350_a_at) / RFU PLEKHG5 (11743358_a_at) / Fold change /veh PLEKHG5 (11743358_a_at) / RFU ZSCAN30 (11745921_a_at) / Fold change /veh ZSCAN30 (11745921_a_at) / RFU CMKLR1 (11741424_a_at) / Fold change /veh CMKLR1 (11741424_a_at) / RFU LOC101060620 /// MAPK8IP1 (11723275_at) / Fold change /veh LOC101060620 /// MAPK8IP1 (11723275_at) / RFU SPTSSB (11747773_x_at) / Fold change /veh SPTSSB (11747773_x_at) / RFU PRSS12 (11739890_at) / Fold change /veh PRSS12 (11739890_at) / RFU BIN1 (11741810_x_at) / Fold change /veh BIN1 (11741810_x_at) / RFU WNT11 (11732464_a_at) / Fold change /veh WNT11 (11732464_a_at) / RFU C10orf10 (11716521_a_at) / Fold change /veh C10orf10 (11716521_a_at) / RFU C5orf56 (11738089_at) / Fold change /veh C5orf56 (11738089_at) / RFU CYB561 (11721691_x_at) / Fold change /veh CYB561 (11721691_x_at) / RFU ANKRD19P (11752326_a_at) / Fold change /veh ANKRD19P (11752326_a_at) / RFU OR2T12 /// OR2T33 /// OR2T8 (11738714_s_at) / Fold change /veh OR2T12 /// OR2T33 /// OR2T8 (11738714_s_at) / RFU VCAN (11748164_a_at) / Fold change /veh VCAN (11748164_a_at) / RFU JSRP1 (11732532_at) / Fold change /veh JSRP1 (11732532_at) / RFU KRTAP10-11 (11738290_x_at) / Fold change /veh KRTAP10-11 (11738290_x_at) / RFU MYO3A (11730013_a_at) / Fold change /veh MYO3A (11730013_a_at) / RFU EBF3 (11725865_a_at) / Fold change /veh EBF3 (11725865_a_at) / RFU CAMK2N1 (11719241_x_at) / Fold change /veh CAMK2N1 (11719241_x_at) / RFU C5orf56 (11738088_a_at) / Fold change /veh C5orf56 (11738088_a_at) / RFU OLFML3 (11715873_a_at) / Fold change /veh OLFML3 (11715873_a_at) / RFU LOC100653217 /// NTM (11731650_a_at) / Fold change /veh LOC100653217 /// NTM (11731650_a_at) / RFU MAPK11 (11762145_a_at) / Fold change /veh MAPK11 (11762145_a_at) / RFU FIZ1 (11724087_x_at) / Fold change /veh FIZ1 (11724087_x_at) / RFU OASL (11726364_x_at) / Fold change /veh OASL (11726364_x_at) / RFU SOX15 (11748057_x_at) / Fold change /veh SOX15 (11748057_x_at) / RFU CD79A (11719716_a_at) / Fold change /veh CD79A (11719716_a_at) / RFU HIST1H1D (11736915_at) / Fold change /veh HIST1H1D (11736915_at) / RFU CASKIN2 (11723855_a_at) / Fold change /veh CASKIN2 (11723855_a_at) / RFU LOC730098 (11760151_x_at) / Fold change /veh LOC730098 (11760151_x_at) / RFU OR4N2 (11742367_at) / Fold change /veh OR4N2 (11742367_at) / RFU PRRT2 (11749266_a_at) / Fold change /veh PRRT2 (11749266_a_at) / RFU SNX32 (11753110_a_at) / Fold change /veh SNX32 (11753110_a_at) / RFU CDHR5 (11726645_a_at) / Fold change /veh CDHR5 (11726645_a_at) / RFU RCAN1 (11760418_a_at) / Fold change /veh RCAN1 (11760418_a_at) / RFU FAM167A (11723789_a_at) / Fold change /veh FAM167A (11723789_a_at) / RFU FAM26E (11764081_at) / Fold change /veh FAM26E (11764081_at) / RFU ISYNA1 (11749810_s_at) / Fold change /veh ISYNA1 (11749810_s_at) / RFU ACY1 (11761880_at) / Fold change /veh ACY1 (11761880_at) / RFU 11764098_at / Fold change /veh 11764098_at / RFU SAMD14 (11745864_x_at) / Fold change /veh SAMD14 (11745864_x_at) / RFU NPB (11741838_a_at) / Fold change /veh NPB (11741838_a_at) / RFU TMPRSS6 (11731388_a_at) / Fold change /veh TMPRSS6 (11731388_a_at) / RFU KRTAP10-2 (11738614_at) / Fold change /veh KRTAP10-2 (11738614_at) / RFU ARHGAP8 /// PRR5-ARHGAP8 (11727945_x_at) / Fold change /veh ARHGAP8 /// PRR5-ARHGAP8 (11727945_x_at) / RFU KRTAP5-7 /// NADSYN1 (11734609_at) / Fold change /veh KRTAP5-7 /// NADSYN1 (11734609_at) / RFU RASL12 (11751679_a_at) / Fold change /veh RASL12 (11751679_a_at) / RFU CDKN2B (11736163_a_at) / Fold change /veh CDKN2B (11736163_a_at) / RFU PRF1 (11729649_at) / Fold change /veh PRF1 (11729649_at) / RFU, ZNF638 /// ZNF638-IT1 / Fold change vs veh, ZNF638 /// ZNF638-IT1 / RFU, PANK3 / Fold change vs veh, PANK3 / RFU, SH3YL1 / Fold change vs veh, SH3YL1 / RFU, ZEB2 / Fold change vs veh, ZEB2 / RFU, NRIP1 / Fold change vs veh, NRIP1 / RFU, PTTG1IP / Fold change vs veh, PTTG1IP / RFU, CAPN2 / Fold change vs veh, CAPN2 / RFU, MED14 / Fold change vs veh, MED14 / RFU, SNORA58 / Fold change vs veh, SNORA58 / RFU, C1orf63 / Fold change vs veh, C1orf63 / RFU, LRRFIP1 / Fold change vs veh, LRRFIP1 / RFU, NDUFAF7 / Fold change vs veh, NDUFAF7 / RFU, SLC12A2 / Fold change vs veh, SLC12A2 / RFU, IBTK / Fold change vs veh, IBTK / RFU, ESF1 / Fold change vs veh, ESF1 / Fold change vs veh, TMEM50B / RFU, TAOK1 / Fold change vs veh, TAOK1 / RFU, ACBD3 / Fold change vs veh, ACBD3 / RFU, TMA16 / Fold change vs veh, TMA16 / RFU, RWDD3 / Fold change vs veh, RWDD3 / RFU, BCAT1 / Fold change vs veh, BCAT1 / RFU, EDEM3 / Fold change vs veh, EDEM3 / RFU, TMEM33 / Fold change vs veh, TMEM33 / RFU, WDR75 / Fold change vs veh, WDR75 / RFU, AHCTF1 / Fold change vs veh, AHCTF1 / RFU, TFRC / Fold change vs veh, TFRC / RFU, ZDHHC17 / Fold change vs veh, ZDHHC17 / RFU, NOM1 / Fold change vs veh, NOM1 / RFU, ARL8B / Fold change vs veh, ARL8B / RFU, ZBTB11 / Fold change vs veh, ZBTB11 / RFU, TAMM41 / Fold change vs veh, TAMM41 / RFU, KIAA1704 /// LOC100996395 / Fold change vs veh, KIAA1704 /// LOC100996395 / RFU, ING1 / Fold change vs veh, ING1 / RFU, TRMT61B / Fold change vs veh, TRMT61B / RFU, FUBP3 / Fold change vs veh, FUBP3 / RFU, TP53 / Fold change vs veh, TP53 / RFU, TNKS2 / Fold change vs veh, TNKS2 / RFU, ZFP14 / Fold change vs veh, ZFP14 / RFU, ACTR2 / Fold change vs veh, ACTR2 / RFU, PPP3R1 / Fold change vs veh, PPP3R1 / RFU, PIK3R1 / Fold change vs veh, PIK3R1 / RFU, HNRNPA1 / Fold change vs veh, HNRNPA1 / RFU, RNF170 / Fold change vs veh, RNF170 / RFU, ZNF28 / Fold change vs veh, ZNF28 / RFU, RNGTT / Fold change vs veh, RNGTT / RFU, OGT / Fold change vs veh, OGT / RFU, BRD1 / Fold change vs veh, BRD1 / RFU, MARS / Fold change vs veh, MARS / RFU, ZNF655 / Fold change vs veh, ZNF655 / RFU, FAHD1 / Fold change vs veh, FAHD1 / RFU, BDP1 / Fold change vs veh, BDP1 / RFU, LRRCC1 / Fold change vs veh, LRRCC1 / RFU, ARID1A / Fold change vs veh, ARID1A / RFU, ZNF146 / Fold change vs veh, ZNF146 / RFU, ZNF330 / Fold change vs veh, ZNF330 / RFU, GPN3 / Fold change vs veh, GPN3 / RFU, C9orf123 / Fold change vs veh, C9orf123 / RFU, N4BP2L2 / Fold change vs veh, N4BP2L2 / RFU, ARFIP1 / Fold change vs veh, ARFIP1 / RFU, FAM179B / Fold change vs veh, FAM179B / RFU, BCL10 / Fold change vs veh, BCL10 / RFU, UHRF1BP1L / Fold change vs veh, UHRF1BP1L / RFU, BET1 / Fold change vs veh, BET1 / RFU, CNOT2 / Fold change vs veh, CNOT2 / RFU, ZNF268 / Fold change vs veh, ZNF268 / Fold change vs veh, ZNF507 / RFU, DGCR2 / Fold change vs veh, DGCR2 / RFU, WDSUB1 / Fold change vs veh, WDSUB1 / Fold change vs veh, HSP90B1 /// MIR3652 / RFU, ADSS / Fold change vs veh, ADSS / RFU, GK / Fold change vs veh, GK / RFU, ZNF148 / Fold change vs veh, ZNF148 / RFU, TAF9 / Fold change vs veh, TAF9 / RFU, SLC1A5 / Fold change vs veh, SLC1A5 / RFU, SLMO2 / Fold change vs veh, SLMO2 / RFU, ABCC4 / Fold change vs veh, ABCC4 / RFU, LOC101060439 /// RAP1B / Fold change vs veh, LOC101060439 /// RAP1B / RFU, RFX7 / Fold change vs veh, RFX7 / RFU, GTPBP10 / Fold change vs veh, GTPBP10 / RFU, CNEP1R1 / Fold change vs veh, CNEP1R1 / RFU, BIVM-ERCC5 /// ERCC5 / Fold change vs veh, BIVM-ERCC5 /// ERCC5 / RFU, ILF3 / Fold change vs veh, ILF3 / RFU 11762660_at / Fold change /veh 11762660_at / RFU VCAN (11757783_s_at) / Fold change /veh VCAN (11757783_s_at) / RFU DDX43 (11728927_at) / Fold change /veh DDX43 (11728927_at) / RFU KRT8 (11758188_x_at) / Fold change /veh KRT8 (11758188_x_at) / RFU NKD1 (11759106_at) / Fold change /veh NKD1 (11759106_at) / RFU SRD5A1 (11742802_a_at) / Fold change /veh SRD5A1 (11742802_a_at) / RFU TPSAB1 /// TPSB2 (11721975_s_at) / Fold change /veh TPSAB1 /// TPSB2 (11721975_s_at) / RFU GSTM3 (11746129_a_at) / Fold change /veh GSTM3 (11746129_a_at) / RFU IL23R (11737362_x_at) / Fold change /veh IL23R (11737362_x_at) / RFU TMEM51 (11727254_a_at) / Fold change /veh TMEM51 (11727254_a_at) / RFU PIWIL2 (11732686_x_at) / Fold change /veh PIWIL2 (11732686_x_at) / RFU ORM1 (11744905_x_at) / Fold change /veh ORM1 (11744905_x_at) / RFU CCDC152 (11743942_at) / Fold change /veh CCDC152 (11743942_at) / RFU ECM1 (11717891_a_at) / Fold change /veh ECM1 (11717891_a_at) / RFU IL23R (11748794_a_at) / Fold change /veh IL23R (11748794_a_at) / RFU TNFAIP8L3 (11732012_x_at) / Fold change /veh TNFAIP8L3 (11732012_x_at) / RFU MBOAT4 (11741988_at) / Fold change /veh MBOAT4 (11741988_at) / RFU 11764193_at / Fold change /veh 11764193_at / RFU TMEM53 (11763286_at) / Fold change /veh TMEM53 (11763286_at) / RFU MAGEB2 (11727129_at) / Fold change /veh MAGEB2 (11727129_at) / RFU TMEM200A (11744735_a_at) / Fold change /veh TMEM200A (11744735_a_at) / RFU CCDC152 (11751479_a_at) / Fold change /veh CCDC152 (11751479_a_at) / RFU FAM211A (11726209_a_at) / Fold change /veh FAM211A (11726209_a_at) / RFU RGS16 (11746705_a_at) / Fold change /veh RGS16 (11746705_a_at) / RFU VCAN (11755009_s_at) / Fold change /veh VCAN (11755009_s_at) / RFU RHOB (11743442_s_at) / Fold change /veh RHOB (11743442_s_at) / RFU RGS16 (11720943_a_at) / Fold change /veh RGS16 (11720943_a_at) / RFU RGS16 (11720944_at) / Fold change /veh RGS16 (11720944_at) / RFU, VPS4B / Fold change vs veh, VPS4B / RFU, CREB1 / Fold change vs veh, CREB1 / RFU, DNAJC13 / Fold change vs veh, DNAJC13 / RFU, GNAQ / Fold change vs veh, GNAQ / RFU, CDK5R1 / Fold change vs veh, CDK5R1 / RFU, ZRANB3 / Fold change vs veh, ZRANB3 / RFU, CUL4A / Fold change vs veh, CUL4A / RFU, CCNY / Fold change vs veh, CCNY / RFU, UFL1 / Fold change vs veh, UFL1 / RFU, COG3 / Fold change vs veh, COG3 / RFU, DIAPH2 / Fold change vs veh, DIAPH2 / RFU, SKA2 / Fold change vs veh, SKA2 / RFU, AFF3 / Fold change vs veh, AFF3 / RFU, LMF1 / Fold change vs veh, LMF1 / RFU, IPO11 / Fold change vs veh, IPO11 / RFU, DFFB / Fold change vs veh, DFFB / RFU, FOXP1 / Fold change vs veh, FOXP1 / RFU, CARD8 / Fold change vs veh, CARD8 / RFU, STRN3 / Fold change vs veh, STRN3 / RFU, ADK / Fold change vs veh, ADK / RFU, RASSF2 / Fold change vs veh, RASSF2 / RFU, WIPF1 / Fold change vs veh, WIPF1 / RFU, LARP1B / Fold change vs veh, LARP1B / RFU, RASA1 / Fold change vs veh, RASA1 / RFU, RB1 / Fold change vs veh, RB1 / RFU, PPFIA1 / Fold change vs veh, PPFIA1 / RFU, MAT2A / Fold change vs veh, MAT2A / RFU, CCT5 / Fold change vs veh, CCT5 / RFU, WDR92 / Fold change vs veh, WDR92 / RFU, CUX1 / Fold change vs veh, CUX1 / RFU, TTC7A / Fold change vs veh, TTC7A / RFU, TMEM135 / Fold change vs veh, TMEM135 / RFU, DEPTOR / Fold change vs veh, DEPTOR / RFU, CPM / Fold change vs veh, CPM / RFU, DNAJB6 / Fold change vs veh, DNAJB6 / RFU, CACNA2D3 / Fold change vs veh, CACNA2D3 / RFU, DTX4 / Fold change vs veh, DTX4 / RFU, TFCP2 / Fold change vs veh, TFCP2 / RFU, GMCL1 /// GMCL1P1 / Fold change vs veh, GMCL1 /// GMCL1P1 / RFU, AEBP2 / Fold change vs veh, AEBP2 / RFU, SNHG1 /// SNORD22 /// SNORD25 /// SNORD26 /// SNORD27 /// SNORD28 /// SNORD29 /// SNORD31 / Fold change vs veh, SNHG1 /// SNORD22 /// SNORD25 /// SNORD26 /// SNORD27 /// SNORD28 /// SNORD29 /// SNORD31 / Fold change (Aza/veh), C12orf56 (ProbeSet 11735607_a_at) / Fold change (ACY-1035/veh), C12orf56 (ProbeSet 11735607_a_at) / Fold change (Aza/veh), FGFR1OP (ProbeSet 11751329_s_at) / Fold change (ACY-1035/veh), FGFR1OP (ProbeSet 11751329_s_at) / Fold change (Aza/veh), VPS36 (ProbeSet 11739960_a_at) / Fold change (ACY-1035/veh), VPS36 (ProbeSet 11739960_a_at) / RFU SYPL1 (11715823_x_at) / Fold change /veh SYPL1 (11715823_x_at) / RFU IGFBP7 (11715501_s_at) / Fold change /veh IGFBP7 (11715501_s_at) / RFU REEP3 (11722064_at) / Fold change /veh REEP3 (11722064_at) / RFU IGLL1 (11728026_x_at) / Fold change /veh IGLL1 (11728026_x_at): dose or concentration left out as unconfirmed
Conditions: MV-4-11 cells, 48 hours

With `Nc1ccc(-c2cccs2)cc1NC(=O)c1ccc2c(c1)cc(C1CC1)n2CCN1CCOCC1` [ACY-1035] the “RFU MBOAT4 (11741988_at)” value was 8.81 RFU.
